Experimental data taken from patent US20240252508A1, “Novel glucose uptake inhibitors for use in the treatment of cancer” (NOVELYEAST BV, priority 2021, published 2024).

Key:
tps1Δ cells = assay: Growth rescue of tps1Δ strain on glucose (growth curves, 2% galactose medium); type: cell-based, S. cerevisiae
Method in brief: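 tps1Δ yeast pregrown in Complete Synthetic medium with 2% galactose, washed, resuspended to OD 0.1; compounds added 10 min before glucose. Growth followed as OD595 every 30 min at 30 °C in at least three technical replicates.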

human GLUT1^V69M = biological target: T1, human GLUT1^V69M (Homo sapiens, UniProt P11166, V69M); assay: Glucose uptake by GLUT1^V69M expressed in hxt^0 gal2Δ (RE700A) yeast; type: cell-based; conditions: 2.5 mM glucose
T1 construct: HA (C); expressed in transfected cells; host or cells: S. cerevisiae RE700A (hxt0 gal2Δ), plasmid pFL38Kan-GLUT1^V69M (TEF1 promoter, low-copy)
T1 sequence (P11166 1-492 V69M): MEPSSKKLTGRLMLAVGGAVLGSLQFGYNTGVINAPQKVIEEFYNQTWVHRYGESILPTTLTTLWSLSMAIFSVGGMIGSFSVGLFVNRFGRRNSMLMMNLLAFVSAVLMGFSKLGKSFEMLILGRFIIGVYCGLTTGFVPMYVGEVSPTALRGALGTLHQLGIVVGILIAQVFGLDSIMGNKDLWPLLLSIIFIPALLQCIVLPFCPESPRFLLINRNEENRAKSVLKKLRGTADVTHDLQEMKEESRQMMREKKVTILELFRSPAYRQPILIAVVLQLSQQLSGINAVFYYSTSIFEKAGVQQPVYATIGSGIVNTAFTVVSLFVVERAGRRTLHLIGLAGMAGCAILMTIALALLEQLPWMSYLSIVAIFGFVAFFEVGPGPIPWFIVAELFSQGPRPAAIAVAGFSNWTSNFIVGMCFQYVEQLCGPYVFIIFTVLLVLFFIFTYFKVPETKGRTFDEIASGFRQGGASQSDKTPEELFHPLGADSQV
From the text: (§1) To assess whether WBC-A could inhibit glucose transport activity of the GLUT carriers, we expressed human GLUT1^V69M and GLUT4^V85M in a hxt^0 gal2Δ (RE700A) and hxt^0 erg4Δ (EBY.VW4000) strain, respectively. These strains are both deficient in glucose uptake due to absence of all active glucose transporters. For functional GLUT expression in yeast, specific mutations had to be introduced in both sequences, whereas for GLUT4, an additional ERG4 gene deletion was required^64,65,66.
(§2) Zero-trans uptake of radioactively labeled [U-^14C]glucose, [U-^14C]fructose or [U-^14C]galactose by S. cerevisiae cells was determined in accordance with previous studies^44,66. Cells were grown on different carbon sources depending on the experiment. For measuring glucose uptake activity in the tps1Δ and tps1Δ hxtA strains (FIG. 1b,c), cells were grown on YP medium containing 3% glycerol (measurement of 10s). Typically, for compound characterization and kinetic studies in wild type and tps1Δ strains, cells were (pre)grown on Complete Synthetic medium supplemented with 2% galactose (measurement of 10s). […] The loaded filter was transferred to a scintillation vial containing 3 mL liquid scintillation cocktail (Ultima-Flo M, Perkin Elmer) and counted using the Hidex 300 SL. […]

yeast Hxt7 carrier = biological target: T2, yeast Hxt7 carrier (Saccharomyces cerevisiae, UniProt P39004); assay: Glucose uptake by Hxt7 expressed in hxt^0 gal2Δ (RE700A) yeast; type: cell-based, S. cerevisiae
T2 construct: HA (C); expressed in transfected cells; host or cells: S. cerevisiae RE700A (hxt0 gal2Δ) in A5; EBY.VW4000 (hxt0 erg4Δ) in A7; plasmid 'pHXT7'
From the text: as §1, §2

T2 sequence (P39004 whole entry): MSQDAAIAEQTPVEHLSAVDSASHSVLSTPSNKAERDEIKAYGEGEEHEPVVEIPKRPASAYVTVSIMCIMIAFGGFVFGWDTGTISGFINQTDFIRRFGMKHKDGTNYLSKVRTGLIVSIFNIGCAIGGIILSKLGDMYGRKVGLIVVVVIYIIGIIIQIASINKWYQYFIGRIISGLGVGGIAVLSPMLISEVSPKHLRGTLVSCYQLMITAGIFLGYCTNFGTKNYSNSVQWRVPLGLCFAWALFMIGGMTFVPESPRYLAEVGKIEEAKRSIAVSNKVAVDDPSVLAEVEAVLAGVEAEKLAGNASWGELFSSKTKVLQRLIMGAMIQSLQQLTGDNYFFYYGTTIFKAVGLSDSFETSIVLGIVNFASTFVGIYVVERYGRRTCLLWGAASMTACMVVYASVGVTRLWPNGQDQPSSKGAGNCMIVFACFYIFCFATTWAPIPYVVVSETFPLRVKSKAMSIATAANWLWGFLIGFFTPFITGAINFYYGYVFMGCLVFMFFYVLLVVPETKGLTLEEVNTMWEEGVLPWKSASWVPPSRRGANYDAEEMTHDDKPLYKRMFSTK

## Cc1nc(Sc2nnc3n2CCCCC3)c2c(-c3cccs3)csc2n1 [WBC-A]
tps1Δ cells; 100 μM WBC-A, 5 mM glucose
  Rescue of tps1Δ growth on galactose in the presence of 5 mM glucose: rescued growth
tps1Δ cells; 100 μM WBC-A, 7.5 mM glucose
  Rescue of tps1Δ growth in the presence of 7.5 mM glucose: not able to restore growth
tps1Δ cells; 100 μM WBC-A, 2% galactose
  Growth of tps1Δ cells on galactose in the absence of glucose: significant growth delay
tps1Δ cells; 2.5 mM glucose
  Minimal rescue concentration for growth of tps1Δ cells on 2.5 mM glucose: 25 µM
Human GLUT1^V69M; 25 μM, hxt^0 gal2Δ strain
  Inhibition of glucose uptake by GLUT1^V69M at 25 μM: inhibited
Human GLUT1^V69M; hxt^0 gal2Δ (RE700A)
  IC50: 24 µM
Yeast Hxt7 carrier
  IC50: 51 µM
Yeast Hxt7 carrier; 25 μM, 2.5 mM glucose, hxt^0 gal2Δ strain
  Inhibition of glucose uptake by Hxt7 at 25 μM: inhibited
